Molecules are shown by their SMILES.

This data set in a line: gradient 5% acetonitrile 3 min, to 50% in 2 min, to 85% in 15 min, held 3 min, 100 µL/min. To be noted: column: Zorbax Extend-C18 2.1 x 50 mm; eluents: water / acetonitrile, 0.1% formic acid. In short, it runs like this: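 Values are retention times taken from adduct peaks that software picked and an analyst inspected. The pure standards were run as mixtures of ~100 molecules on HPLC linked to a quadrupole time-of-flight mass spectrometer, in positive and negative ionization mode. A Zorbax Extend-C18 column (2.1 × 50 mm, 1.8 μm) was used at 100 μL/min with water and acetonitrile, each including 0.1% formic acid.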
`CC(C)n1cnc2cc(CNC(=O)c3cccc(C(F)(F)F)c3)ccc21` showed an RP-LC retention time of 675 s.

`Fc1cccc(CN2CCc3nc(N4CCN(c5ncccn5)CC4)ncc3C2)c1` displayed an RP-LC retention time of 633 s.

`Cc1ccc(NS(=O)(=O)c2ccc3c(c2)C(=O)N(C)c2ncccc2O3)cc1` registered an RP-LC retention time of 914 s.

The molecule `CC1=C(c2ccc(F)cc2)S(=O)(=O)N=C1N1CCCN(C(=O)c2cccs2)CC1` returned an RP-LC retention time of 806 s.

In the case of `CCCCN(Cc1ccco1)c1nc(-c2ccc(OC)cc2)nc2ccccc12`, the RP-LC retention time stood at 940 s.

With `C[C@@H](Nc1cc(NS(=O)(=O)N2CCC2)nc(SCc2cccc(F)c2F)n1)[C@@H](O)CO`, the RP-LC retention time is 845 s.

In the case of `Cc1nnc(-c2ccc3ccn(CC(=O)Nc4ccccc4Cl)c3c2)o1`, the RP-LC retention time amounted to 963 s.

On to `Cc1sc(-c2nnc(C3CC3)o2)cc1NC(=O)c1cccc(N(C)C)c1`, for which the RP-LC retention time was 896 s.

`COc1ccc(C)cc1NC(=O)N1CCCC1c1nc(-c2ccccc2OC)no1` (centres undefined) displayed an RP-LC retention time of 940 s.

`O=C(NC1(c2nc(-c3cccnc3)no2)CCCCC1)c1n[nH]c2c1CCCC2`: the RP-LC retention time came out at 854 s.

`CCCOC1CCN(C(=O)NC)CC1` gave an RP-LC retention time of 630 s.

In turn, `COc1ccc(C(=O)N2CC(n3cc(COCC4CC4)nn3)C2)c(OC)c1` gave an RP-LC retention time of 705 s.

`CCCS(=O)(=O)N1CCCC(Cn2c(C)nc3cccnc32)C1` (centres undefined): the RP-LC retention time stood at 572 s.

On to `COCCN1C(=O)c2cccn2CC1CNC(=O)c1ccnn1C` (centres undefined), for which the RP-LC retention time was 626 s.

The molecule `CCSc1nnc(NC(=O)c2cc(=O)c(OCc3cccc(OC)c3)cn2C)s1` came in with an RP-LC retention time of 685 s.

As to `Cc1ccc(-c2csc(-n3nc(C)c(CC(=O)Nc4ccc(C)c(C)c4)c3C)n2)cc1`, the RP-LC retention time came out at 1310 s.

On to `Cc1ccn2c(NC(=O)CCc3ccccc3)c(-c3ccc(F)cc3)nc2c1`, for which the RP-LC retention time is 703 s.

In the case of `O=C(NC1CC1)c1nc(Nc2ccc(F)cc2)c2ccccc2n1`, the RP-LC retention time was 712 s.

`Cc1cc(C)cc(NC(=O)CN2C(=O)C(C(=O)N3CCCC3)Sc3ccccc32)c1` (centres undefined) returned an RP-LC retention time of 1070 s.

For the molecule `COc1ccc(N2CCN(C(=O)c3cc(NC(=O)C(C)C)cc4nc(C)ccc34)CC2)cc1`, the RP-LC retention time was found to be 636 s.

For `CCOC(=O)c1ccc(NC(=O)NCC(c2cccnc2)c2c[nH]c3ccccc23)cc1` (centres undefined), the RP-LC retention time stood at 814 s.

The molecule `O=S(=O)(c1cccn2c(SCc3ccccc3)nnc12)N1CCCC1` registered an RP-LC retention time of 808 s.

As for `Cc1cc(C)cc(NC(=O)C2CCCN(c3nccnc3Sc3ccccc3)C2)c1` (centres undefined), the RP-LC retention time came out at 1200 s.

`Cc1cc(OCC(=O)N(Cc2ccc(N(C)C)cc2)C2CCS(=O)(=O)C2)ccc1Cl` (centres undefined) displayed an RP-LC retention time of 839 s.

As for `O=C(c1cnccn1)N1CCN(c2cc(-c3ccc(Cl)cc3)[nH]n2)CC1`, the RP-LC retention time was found to be 722 s.

`Cc1noc(C2CN(C(=O)Nc3c(F)cccc3F)CC23CCOCC3)n1` (centres undefined) registered an RP-LC retention time of 654 s.

`CCCc1c(C(=O)NCC2CCCO2)nnn1-c1ccc(OC)cc1` (centres undefined) came in with an RP-LC retention time of 783 s.

`NS(=O)(=O)c1ccc(CCNc2nnnc3c2cnn3-c2ccccc2)cc1` displayed an RP-LC retention time of 814 s.

Molecule `CC1=NS(=O)(=O)N(Cc2ccccc2)C=C1C(=O)OCc1ccc(Br)cc1` yielded an RP-LC retention time of 1200 s.

The molecule `O=C(C1=CN(c2ccccc2)c2ccccc2S1(=O)=O)N1CCCCC1` yielded an RP-LC retention time of 821 s.

Turning to `Cc1cc(S(=O)(=O)[C@H]2CS(=O)(=O)C[C@@H]2N2CCN(c3ccc(F)cc3)CC2)ccc1F`, the RP-LC retention time was 662 s.

As to `Cc1cccc(CNC(=O)C2CCCN(c3nnc(C)c4c(C)n(-c5ccccc5)nc34)C2)c1` (centres undefined), the RP-LC retention time stood at 745 s.

The molecule `COC(=O)c1cccc(C(=O)N2CCN(c3cccc(C)c3C)CC2)n1` registered an RP-LC retention time of 916 s.

As to `CN(C)CCNC(=O)C1CCN(c2nc3ccc(-c4ccccc4F)nc3s2)CC1`, the RP-LC retention time amounted to 658 s.

As to `CC(C)C(=O)N1CCN(c2ccc(Nc3c4c(nc5nc(-c6ccccc6)nn35)CCCC4)cc2)CC1`, the RP-LC retention time is 898 s.

As for `O=C(NCc1ccco1)C1CCCN(c2nc3ccccc3[nH]c2=O)C1` (centres undefined), the RP-LC retention time came out at 721 s.

Consider `O=S(=O)(Nc1cccc(Cl)c1)c1c[nH]c2ncccc12`, for which the RP-LC retention time stood at 765 s.

`CCc1nc(-c2cc(S(=O)(=O)Nc3ccccc3Br)c(C)s2)cs1` came in with an RP-LC retention time of 1130 s.

The molecule `CCc1cccc(NC(=O)c2sc(-c3cn(C)c4ncccc34)nc2C)c1` had an RP-LC retention time of 1040 s.

Molecule `CCN(CC)CCCNC(=O)c1nnc(-c2ccc(S(=O)(=O)N3CCC(C)CC3)cc2)o1` came in with an RP-LC retention time of 696 s.

In the case of `CCc1ccc(S(=O)(=O)Nc2cc(C(=O)O)ccc2N2CCN(c3ccccn3)CC2)cc1`, the RP-LC retention time amounted to 669 s.

The molecule `Cc1cc(-c2csc(S(=O)(=O)N(Cc3ccco3)C3CCCC3)c2)on1` came in with an RP-LC retention time of 1110 s.

Turning to `CCOC(=O)CNC(=O)N1CCN(Cc2nc3cc(Cl)ccc3o2)CC1`, the RP-LC retention time turned out to be 644 s.

`O=C(Nc1cccn2c(C3CCC3)nnc12)c1ccc2c(c1)OCO2` yielded an RP-LC retention time of 744 s.

As to `O=C(NCc1ccccc1)c1nnc(-c2ccc(S(=O)(=O)N3CCOCC3)cc2)o1`, the RP-LC retention time was 816 s.

In the case of `Cc1ccccc1-c1cc(N2CCN(C(=O)NCC3CCCO3)CC2)ncn1` (centres undefined), the RP-LC retention time turned out to be 600 s.

`CCN1CCN(C(=O)C2CCN(c3ccc(Sc4ccc(C(C)C)cc4)nn3)CC2)CC1` came in with an RP-LC retention time of 659 s.

For the molecule `CCN1CCN(CCNC(=O)c2ccc3nc(-c4ccc(Cl)cc4)cn3c2)CC1`, the RP-LC retention time amounted to 578 s.

Consider `CCOC(=O)CCNC(=O)N1CCc2c([nH]c3ccccc23)C1c1ccccc1F` (centres undefined), for which the RP-LC retention time was found to be 941 s.

The molecule `CCc1nc2cc(-c3noc(-c4ccccc4Br)n3)ccc2o1` gave an RP-LC retention time of 1260 s.

In turn, `CCCC(=O)NCc1c(-c2ccccc2)nc2n1CCS2` returned an RP-LC retention time of 604 s.

The molecule `CNC(=O)C1CCCN(c2nc3ncn(CC(=O)Nc4c(C)cc(C)cc4C)c(=O)c3s2)C1` (centres undefined) displayed an RP-LC retention time of 661 s.

`COc1ccccc1NC(=O)c1cc2c(s1)CN(C(C)C)C2` gave an RP-LC retention time of 614 s.

For `CCC(C)C(=O)N1CCN(c2ncccc2-c2nnc(C3CC3)o2)CC1` (centres undefined), the RP-LC retention time is 733 s.

`Cc1ccc(C(=O)NC2CCN(c3nnc4ccc(C(F)(F)F)cn34)CC2)cc1`: the RP-LC retention time was 802 s.

For `O=C(NCC1CCCO1)c1nnn(-c2ccccc2Cl)c1-c1ccncc1` (centres undefined), the RP-LC retention time amounted to 693 s.

For `CCOc1cc(-c2nc(C3CC(=O)N(c4ccc(OC)cc4)C3)no2)cc(OCC)c1OCC` (centres undefined), the RP-LC retention time amounted to 1040 s.

Regarding `Cc1cccc(-c2ncccc2CNS(=O)(=O)c2cccc(C#N)c2)c1`, the RP-LC retention time came to 700 s.

As to `Clc1ccc2ncnc(NCc3ccc4c(c3)OCO4)c2c1`, the RP-LC retention time is 694 s.

As for `CCn1cc(-c2nc(C(=O)Nc3ccc(OC)c(Cl)c3)cs2)c2cccnc21`, the RP-LC retention time was found to be 1110 s.

Molecule `N#Cc1ccc(-c2nc(-c3ccc4c(c3)nnn4CCC(=O)N3CCOCC3)no2)c(F)c1` returned an RP-LC retention time of 674 s.

Molecule `CC(C)OCCCNC(=O)c1cc2n(n1)CCCN(Cc1ccc(F)cc1)C2=O` showed an RP-LC retention time of 795 s.

In the case of `CC1=NS(=O)(=O)N(Cc2ccccc2)C=C1C(=O)OCc1noc(-c2cccc(C)c2)n1`, the RP-LC retention time came out at 1180 s.

For the molecule `CCC(=O)NCc1nc2c(n1CC)CN(S(=O)(=O)c1cc(C)ccc1C)CC2`, the RP-LC retention time was found to be 590 s.

`CCc1cc(=O)n(CC(=O)N2CCCc3ccccc32)c(N2CCOCC2)n1` returned an RP-LC retention time of 781 s.

`Cc1[nH]c(C(=O)N2CCC(CC(=O)NCCC(C)C)CC2)c(C)c1C` returned an RP-LC retention time of 813 s.

The molecule `CC(C)c1ccc(Nc2nc3ccncc3n(C(C)C)c2=O)cc1` gave an RP-LC retention time of 774 s.

Turning to `O=C(NCCc1cccs1)C1CCCN(c2nccn3nc(-c4ccccc4Cl)cc23)C1` (centres undefined), the RP-LC retention time was 947 s.

On to `O=C(c1ccccc1Cl)N1CCN(c2cnn3c(C4CC4)nnc3c2)CC1`, for which the RP-LC retention time was 590 s.

With `Nc1ccccc1C(=O)NC(=O)Nc1ccc(Oc2ncc(Br)cn2)c(Cl)c1`, the RP-LC retention time was found to be 946 s.

In the case of `COc1ccc(OC)c(S(=O)(=O)N2CCC([C@H]3[C@@H](OC)C(=O)N3C(C)C)CC2)c1`, the RP-LC retention time turned out to be 809 s.

In the case of `CC(C)CC(C(=O)Nc1cccc(O)c1)N1C(=O)c2ccccc2C1=O` (centres undefined), the RP-LC retention time came to 823 s.

Molecule `O=C(c1ccc(Cl)s1)N1CCN(S(=O)(=O)C2CC2)CC1` showed an RP-LC retention time of 743 s.

`CC(=O)N1CCC(C(=O)Nc2ccsc2-c2nc(-c3ccccc3)no2)CC1`: the RP-LC retention time was determined as 980 s.

For `Fc1ccc(-c2noc(Cc3nc(-c4ccc(Br)cc4)cs3)n2)cc1`, the RP-LC retention time was determined as 1340 s.

Molecule `O=C(c1ccccc1-c1ocnc1C(=O)N1CCOCC1)N1CCCCC1` yielded an RP-LC retention time of 652 s.

In turn, `O=C(NCC(O)c1ccsc1)c1ccc2nsnc2c1` (centres undefined) displayed an RP-LC retention time of 659 s.

With `Cc1ccc(Cl)cc1NC(=O)NCC1CCOCC1`, the RP-LC retention time was 750 s.

`COC(=O)c1cccc(NC(=O)Cn2c(C)cc(-c3nnc(C4CCC4)o3)c2C)c1` yielded an RP-LC retention time of 882 s.
